Assays:
GPR164 (Or51e1, Olfr558) [1] = molecular target: T1, GPR164 (Or51e1, Olfr558) (Mus musculus, UniProt Q8VGZ7); experiment: cAMP EIA in Or51e1-overexpressing HEK293 cells, single concentration […]; type: cell-based; parameters: HA-tagged Or51e1 in HEK293 cells, co-transfected with RTP1S or RTP4
T1 sequence (Q8VGZ7 1-317): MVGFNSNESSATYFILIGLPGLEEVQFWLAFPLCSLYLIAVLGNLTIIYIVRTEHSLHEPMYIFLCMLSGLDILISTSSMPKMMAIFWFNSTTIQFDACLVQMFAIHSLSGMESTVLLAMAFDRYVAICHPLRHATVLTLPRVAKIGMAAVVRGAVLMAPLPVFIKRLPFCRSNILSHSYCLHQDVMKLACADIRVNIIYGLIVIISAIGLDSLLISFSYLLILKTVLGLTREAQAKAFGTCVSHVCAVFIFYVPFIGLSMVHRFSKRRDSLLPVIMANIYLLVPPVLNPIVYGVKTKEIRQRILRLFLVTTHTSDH

GPR164 (Or51e1, Olfr558) [2] = molecular target: T1, GPR164 (Or51e1, Olfr558); experiment: as above; type: cell-based; parameters: HA-tagged Or51e1 in HEK293 cells, active only when co-transfected with RTP1S

CCCC(=O)O [C4, butyrate]
intracellular cAMP response (GPR164 (Or51e1, Olfr558) [1]): intracellular cAMP levels were upregulated by the treatment with butyrate or valerate (Fig. 1B)

CCCCC(=O)O [C5, valerate]
intracellular cAMP response (GPR164 (Or51e1, Olfr558) [1]): only SCFAs (butyrate and valerate) activated GPR164 in cells expressing RTP4 (Fig. 1B)

CCCCCCCCCC(=O)O [C10, decanoate]
cAMP EIA in Or51e1-overexpressing HEK293 cells, single concentration 1 mM (GPR164 (Or51e1, Olfr558) [2]): GPR164 was activated by the stimulation with butyrate or decanoate when cells were co-transfected with both Or51e1 and RTP1S
